In patent US12570648B2, “6,7-dihydro-5H-pyrido[2,3-c]pyridazine derivatives and related compounds as Bcl-xL protein inhibitors and pro-apoptotic agents for treating cancer” (LES LABORATOIRES SERVIER, priority 2019, dated 2026):
pIC50, pKi: −log10 of the molar value.

What was measured:
[1] = target: His-His-(EK)-hsBCLXL(2-197)[N197C] (Homo sapiens (Human), UniProt Q07817, N197C); assay: Fluorescence quenching assay; format: binding; details: 1 nM Cy5-labelled protein, 400 nM PUMA peptide, 2 hours at 23° C.; KI determined from IC50
Method in brief: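 Ki values converted from IC50s, measured as fluorescence increase (Ex 620/Em 680 nm) after 2 h at 23° C. Compounds were titrated over 11 points against 1 nM Cy5-BCL-xL and 400 nM quencher-tagged PUMA peptide in pH 7.4 HEPES (10 mM), 150 mM NaCl, 0.05% Tween 20, 5% DMSO.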

[2] = system: H146 cells; assay: H146 cell viability using MTT assay; format: cell-based; details: Homo sapiens, NCI-H146, 48 h exposure
Procedure: MTT colorimetric assay is based on the mitochondrial reduction of tetrazolium salt by living cells. The viable cell number is proportional to the production of formazan salts, which can be read spectrophotometrically at 540 nm.
MOLT-4 and H146 cells were purchased from ATCC and cultivated in RPMI 1640 supplemented with 10% heat inactivated fetal bovine serum, penicillin (100 IU/ml), streptomycin (100 μg/ml) and L-glutamine (2 mM). Cells were cultured at 37° C. in a humidified atmosphere containing 5% CO2. Cells were seeded in 96 microwell plates (150p per well) and exposed to the compounds for 48 h (3.16 fold serially diluted; 9 concentrations each, triplicates). At the end of incubation time, 15 μL of MTT solution (5 mg/ml) were added per well and the cells were incubated for another 4 h. Then, 100 μL of 10% Sodium Dodecyl Sulfate (SDS)/HCl 10 mM were added per well and the plate was incubated overnight, before measurement of optical density at 540 nm. IC50s were calculated using standard four-parametric curve fitting.

[3] = system: MOLT-4 cells; assay: MOLT-4 cell viability using MTT assay; format: cell-based; details: Homo sapiens, MOLT-4, 48 h, 48 h exposure
Procedure: MTT colorimetric assay is based on the mitochondrial reduction of tetrazolium salt by living cells.
Cells were cultured at 37° C. in a humidified atmosphere containing 5% CO2. […] At the end of incubation time, 15 μL of MTT solution (5 mg/ml) were added per well and the cells were incubated for another 4 h. […] IC50s were calculated using standard four-parametric curve fitting.

His-His-(EK)-hsBCLXL(2-197)[N197C], sequence (Q07817 2-197 N197C): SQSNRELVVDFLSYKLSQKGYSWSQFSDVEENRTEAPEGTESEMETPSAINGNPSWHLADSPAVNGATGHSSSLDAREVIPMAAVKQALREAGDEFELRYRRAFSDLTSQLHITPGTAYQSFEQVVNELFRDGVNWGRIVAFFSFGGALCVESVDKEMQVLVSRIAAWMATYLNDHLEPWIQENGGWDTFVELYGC

Row | pKi [1] | pIC50 [2] | pIC50 [3] | Compound
1 | 11.55 | 8.52 | 9.49 | Cc1c(Nc2nc3ccccc3s2)nnc2c1CCCN2c1nc(C(=O)O)c(CCCOc2ccc(C#CCN3CCCC3)cc2F)s1 [Example 42, 2-[3-(1,3-Benzothiazol-2-ylamino)-4-methyl-6,7-dihydro-5H-pyrido[2,3-c]pyridazin-8-yl]-5-[3-[2-fluoro-4-(3-pyrrolidin-1-ylprop-1-ynyl)phenoxy]propyl]thiazole-4-carboxylic acid]
2 | 11.42 | 7.98 | 8.54 | Cc1c(Nc2nc3ccccc3s2)nnc2c1CCCN2c1nc(C(=O)O)c(CCCOc2ccc(CCCN3CCN(C)CC3)cc2F)s1 [Example 68, 2-[3-(1,3-Benzothiazol-2-ylamino)-4-methyl-6,7-dihydro-5H-pyrido[2,3-c]pyridazin-8-yl]-5-[3-[2-fluoro-4-[3-(4-methylpiperazin-1-yl)propyl]phenoxy]propyl]thiazole-4-carboxylic acid]
3 | 11.05 | 8.05 | 8.56 | Cc1c(Nc2nc3ccccc3s2)nnc2c1CCCN2c1nc(C(=O)O)c(CCCOc2ccc(N3CCN(C)CC3)cc2F)s1 [Example 60, 2-{3-[(1,3-Benzothiazol-2-yl)amino]-4-methyl-5H,6H,7H,8H-pyrido[2,3-c]pyridazin-8-yl}-5-{3-[2-fluoro-4-(4-methylpiperazin-1-yl)phenoxy]propyl}-1,3-thiazole-4-carboxylic acid]
4 | 11.60 | 8.44 | 9.44 | Cc1c(Nc2nc3ccccc3s2)nnc2c1CCCN2c1nc(C(=O)O)c(CCCOc2ccc(C#CC(C)N3CCN(C)CC3)cc2F)s1 (stereo not drawn) [Example 41, 2-[3-(1,3-Benzothiazol-2-ylamino)-4-methyl-6,7-dihydro-5H-pyrido[2,3-c]pyridazin-8-yl]-5-[3-[2-fluoro-4-[3-(4-methylpiperazin-1-yl)but-1-ynyl]phenoxy]propyl]thiazole-4-carboxylic acid]
5 | 10.92 | 8.09 | 8.70 | Cc1c(Nc2nc3ccccc3s2)nnc2c1CCCN2c1nc(C(=O)O)c(CCCOc2cc3c(cc2F)CCN(C)C3)s1 [Example 66, 2-{3-[(1,3-Benzothiazol-2-yl)amino]-4-methyl-5H,6H,7H,8H-pyrido[2,3-c]pyridazin-8-yl}-5-{3-[(6-fluoro-2-methyl-1,2,3,4-tetrahydroisoquinolin-7-yl)oxy]propyl}-1,3-thiazole-4-carboxylic acid]
6 | 11.80 | 8.65 | 9.51 | Cc1c(Nc2nc3ccccc3s2)nnc2c1CCCN2c1nc(C(=O)O)c(CCCOc2ccc(C#CCN3CCN(C)CC3)cc2F)s1 [Example 48, 2-[3-(1,3-Benzothiazol-2-ylamino)-4-methyl-6,7-dihydro-5H-pyrido[2,3-c]pyridazin-8-yl]-5-[3-[2-fluoro-4-[3-(4-methylpiperazin-1-yl)prop-1-ynyl]phenoxy]propyl]thiazole-4-carboxylic acid]
7 | 11.28 | 7.93 | 7.52 | CNCCc1ccc(OCCCc2sc(N3CCCc4c3nnc(Nc3nc5ccccc5s3)c4C)nc2C(=O)O)c(F)c1 [Example 64, 2-{3-[(1,3-Benzothiazol-2-yl)amino]-4-methyl-5H,6H,7H,8H-pyrido[2,3-c]pyridazin-8-yl}-5-(3-{2-fluoro-4-[2-(methylamino)ethyl]phenoxy}propyl)-1,3-thiazole-4-carboxylic acid]

Further lines, the molecule ahead of its results:

Row | Compound | pKi [1] | pIC50 [2] | pIC50 [3]
8 | Cc1c(Nc2nc3ccccc3s2)nnc2c1CCCN2c1nc(C(=O)O)c(CCCOc2ccc(CCN(C)C)cc2F)s1 [Example 53, 2-{3-[(1,3-Benzothiazol-2-yl)amino]-4-methyl-5H,6H,7H,8H-pyrido[2,3-c]pyridazin-8-yl}-5-(3-{4-[2-(dimethylamino)ethyl]-2-fluorophenoxy}propyl)-1,3-thiazole-4-carboxylic acid] | 11.18 | 7.83 | 8.01
9 | Cc1c(Nc2nc3ccccc3s2)nnc2c1CCCN2c1nc(C(=O)O)c(CCCOc2ccc(C#CCN3CCCCC3)cc2F)s1 [Example 46, 2-[3-(1,3-Benzothiazol-2-ylamino)-4-methyl-6,7-dihydro-5H-pyrido[2,3-c]pyridazin-8-yl]-5-[3-[2-fluoro-4-[3-(1-piperidyl)prop-1-ynyl]phenoxy]propyl]thiazole-4-carboxylic acid] | 10.82 | 7.95 | 8.92
10 | Cc1c(Nc2nc3ccccc3s2)nnc2c1CCCN2c1nc(C(=O)O)c(CCCOc2ccc(CCCN3CCC4(CC3)CNC(=O)C4)cc2F)s1 [Example 73, 2-[3-(1,3-Benzothiazol-2-ylamino)-4-methyl-6,7-dihydro-5H-pyrido[2,3-c]pyridazin-8-yl]-5-[3-[2-fluoro-4-[3-(3-oxo-2,8-diazaspiro[4.5]decan-8-yl)propyl]phenoxy]propyl]thiazole-4-carboxylic acid] | 11.60 | 7.83 | 8.18
11 | Cc1c(Nc2nc3ccccc3s2)nnc2c1CCCN2c1nc(C(=O)O)c(CCCOc2ccc(C#CCN(C)C)cc2C(F)(F)F)s1 [Example 40, 2-{3-[(1,3-Benzothiazol-2-yl)amino]-4-methyl-5H,6H,7H,8H-pyrido[2,3-c]pyridazin-8-yl}-5-(3-{4-[3-(dimethylamino)prop-1-yn-1-yl]-2-(trifluoromethyl)phenoxy}propyl)-1,3-thiazole-4-carboxylic acid] | 10.24 | 7.68 | 8.09
12 | CNCC#Cc1ccc(OCCCc2sc(N3CCc4c3nnc(Nc3nc5ccccc5s3)c4C)nc2C(=O)O)c(F)c1 [Example 37, 2-[3-(1,3-Benzothiazol-2-ylamino)-4-methyl-5,6-dihydropyrrolo[2,3-c]pyridazin-7-yl]-5-[3-[2-fluoro-4-[3-(methylamino)prop-1-ynyl]phenoxy]propyl]thiazole-4-carboxylic acid] | 11.11 | 7.99 | 8.34
13 | Cc1c(Nc2nc3ccccc3s2)nnc2c1CCCN2c1nc(C(=O)O)c(CCCOc2ccc(OCCN3CCCC3)cc2)s1 [Example 52, 2-{3-[(1,3-Benzothiazol-2-yl)amino]-4-methyl-5H,6H,7H,8H-pyrido[2,3-c]pyridazin-8-yl}-5-(3-{4-[2-(pyrrolidin-1-yl)ethoxy]phenoxy}propyl)-1,3-thiazole-4-carboxylic acid] | 11.89 | 7.97 | 8.62
14 | Cc1c(Nc2nc3ccccc3s2)nnc2c1CCCN2c1nc(C(=O)O)c(CCCOc2ccc(C#CCN3CCCC(F)(F)C3)cc2F)s1 [Example 50, 2-{3-[(1,3-Benzothiazol-2-yl)amino]-4-methyl-5H,6H,7H,8H-pyrido[2,3-c]pyridazin-8-yl}-5-(3-{4-[3-(3,3-difluoropiperidin-1-yl)prop-1-yn-1-yl]-2-fluorophenoxy}propyl)-1,3-thiazole-4-carboxylic acid] | 10.15 | 7.06 | 8.43
15 | Cc1c(Nc2nc3ccccc3s2)nnc2c1CCCN2c1nc(C(=O)O)c(CCCOc2ccc(C#CCNCC[N+](C)(C)CCCS(=O)(=O)[O-])cc2F)s1 [Example 54, 3-[2-[3-[4-[3-[2-[3-(1,3-Benzothiazol-2-ylamino)-4-methyl-6,7-dihydro-5H-pyrido[2,3-c]pyridazin-8-yl]-4-carboxy-thiazol-5-yl]propoxy]-3-fluoro-phenyl]prop-2-ynylamino]ethyl-dimethyl-ammonio]propane-1-sulfonate] | 11.92 | 6.23 | 7.33
16 | Cc1c(Nc2nc3ccccc3s2)nnc2c1CCCN2c1nc(C(=O)O)c(CCCOc2ccc(C#CCN(C)C)cc2Cl)s1 [Example 51, 2-{3-[(1,3-Benzothiazol-2-yl)amino]-4-methyl-5H,6H,7H,8H-pyrido[2,3-c]pyridazin-8-yl}-5-(3-{2-chloro-4-[3-(dimethylamino)prop-1-yn-1-yl]phenoxy}propyl)-1,3-thiazole-4-carboxylic acid] | 10.92 | 8.02 | 8.60
17 | CNCCOC1Cc2c(nnc(Nc3nc4ccccc4s3)c2C)N(c2nc(C(=O)O)c(CCCOc3ccc(C#CCN(C)C)cc3F)s2)C1 (stereo not drawn) [Example 65, 2-{3-[(1,3-Benzothiazol-2-yl)amino]-4-methyl-6-[2-(methylamino)ethoxy]-5H,6H,7H,8H-pyrido[2,3-c]pyridazin-8-yl}-5-(3-{4-[3-(dimethylamino)prop-1-yn-1-yl]-2-fluorophenoxy}propyl)-1,3-thiazole-4-carboxylic acid] | 11.30 | 8.40 | 7.58
18 | Cc1c(Nc2nc3ccccc3s2)nnc2c1CCCN2c1nc(C(=O)O)c(CCCOc2cc3c(cc2F)c(CN(C)C)cn3C)s1 [Example 61, 2-{3-[(1,3-Benzothiazol-2-yl)amino]-4-methyl-5H,6H,7H,8H-pyrido[2,3-c]pyridazin-8-yl}-5-[3-({3-[(dimethylamino)methyl]-5-fluoro-1-methyl-1H-indol-6-yl}oxy)propyl]-1,3-thiazole-4-carboxylic acid] | 10.48 | 6.92 | 6.91
